Patent publication US8148392B2, “2-indolyl imidazo [4,5-d] phenanthroline derivatives and their use in the treatment of cancer” (Lorus Therapeutics Inc., priority 2005, dated 2012)
Read-outs that look alike come from different tables or passages of the source.

Assays:
[1] = system: human colon carcinoma HT-29 cells; assay: XTT cell proliferation assay, HT-29; type: cell-based; details: Homo sapiens, HT-29, XTT, read-out: IC50
Experimental: The ability of compounds of Formula I to inhibit the proliferation of human colon carcinoma HT-29 cells was tested as follows. HT-29 colon carcinoma cells used in this example and subsequent examples were maintained as a monolayer in a growth medium; McCoy's 5A modified medium (Sigma, St. Louis, Mo.), supplemented with 2 mM L-glutamine (Gibco, Grand Island, N.Y.), 10% fetal bovine serum (FBS) (Multicell, WISENT Inc. St-Bruno, QC), antibiotic-antimycotic (Multicell), at 37° C. in a 5% CO2-humidified incubator. Cells were transferred onto 150 mm tissue culture plates and grown until sub-confluency (70-80%) prior to their use. The in vitro antiproliferative activity of compounds was evaluated by incubating the cells with varying concentrations of the compounds as shown in Table 1 for 6-7 days. The efficacy of these compounds in this cell proliferation assay was measured based in the ability of live cells to reduce the tetrazolium salt XTT to orange colored compounds of formazan (XTT cell proliferation kit II, Roche Applied Science, Montreal, QC).
The ability of compounds of Formula I to inhibit the proliferation of human colon carcinoma HT-29 cells was tested as described above in Example 13.
Cell growth inhibition IC50 (μM) by compounds of Formula I was tested on various cancer cell types by XTT cell proliferation assay. The growth inhibitory effects of the compounds of Formula I as shown below for the melanoma cell line SK-MEL-2 were reproducible by Lorus Therapeutics Inc.

supercoiled plasmid DNA = assay: In vitro DNA cleavage assay; type: biochemical; details: 25 μM compound, 10 μM CuSO4, 100 μM ascorbic acid, 37° C., 30 minutes
Experimental: Compound 3 was tested for its ability to cleave plasmid DNA in vitro in the presence of copper and the reducing agent ascorbic acid. Experiments were performed in a total of 20 μl, containing 10 mM NaH2PO4/Na2HPO4 buffer (pH 6.7), 1 μg of supercoiled plasmid DNA, 100 μM ascorbic acid, 25 μM drug compound (or vehicle), and 10 μM of CuSO4.5H20. The reaction mixture was incubated at 37° C. for 30 minutes, and 1 μl of 0.1 M EDTA was added to terminate the reaction. DNA loading buffer was added, and reactions were run at 80V for 80 minutes on a 1% agarose gel containing ethidium bromide.
To determine whether ions other than copper could suffice, DNA cleavage reactions were also carried out in the presence of zinc or iron. Reactions were performed as above, in the presence of 25 μM of CuSO4.5H20, ZnCl2, or FeCl2.4H20. […] Note that copper alone in the presence of ascorbic acid can shift the ratio of supercoiled DNA to open circular DNA.
To determine the ratios of compound to copper at which compound 3 was effective, reactions were performed as in FIG. 22A. The ratios of compound 3 to copper of 3:1, 2.5:1, 2:1, 1.5:1, and 1:1, as shown in FIG. 23 were achieved by maintaining the concentration of Cu constant at 10 μM, and varying the concentration of compound 3. The ratios of compound 3 to Cu of 1:1.5, 1:2, 1:2.5, and 1:3, were achieved by maintaining the concentration of compound 3 constant at 10 μM, and varying the concentration of copper.
Other compounds of Formula I, compounds 5, 7, 9 and 13 were also tested for their ability to cleave DNA at a ratio of 2.5:1 to copper (FIG. 23). Ratios of compound 3:copper as indicated, plus concentrations of copper in the absence of compound 3 were used in the DNA cleavage assay as described above.

[2] = type: in vivo; details: i.p. twice per day for 1 week
Experimental: To test the sub-acute toxicity of the compounds of Formula I, female mice were injected with the compounds and toxicity was evaluated based on mortality, changes in behaviour, appearance and weight. Briefly, ICR normal female mice (5-6 weeks old; n=33) weighing about 0.020 kg in body weight, were injected with various compounds at 100 mg/kg and 50 mg/kg or with the vehicle alone (Lutrol (M68, micronized)). Groups of 3 ICR female mice were injected with one intra-peritoneal (i.p.) injection of 250 μl of each compound at 4.0 mg/ml twice per day (100 mg/kg) for 1 week (Group I); or with one intra-peritoneal (i.p.) injection of 250 μl of each compound at 2.0 mg/ml twice per day (50 mg/kg) for 1 week (Group II), or with one intra-peritoneal (i.p.) injection of 250 μl of lutrol vehicle control twice per day for 1 week (Control Group).
The compounds to be tested were prepared to provide enough for one week at concentrations of 4.0 mg/ml and 2.0 mg/ml. Briefly, 50 mg of each compound was dissolved in 1.25 ml of 100% DMSO and diluted with 6.25 ml of Lutrol (30% in water) and 5 ml water, to prepare a solution of 4 mg/ml compound in 15% Lutrol in water. Next, 4 ml of each prepared solution was further diluted with 4 ml of 15% Lutrol in water to provide the 2.0 mg/ml solution of each compound. For the vehicle control solution, 8 ml of 15% Lutrol in water was prepared. Compounds at concentrations of 4.0 mg/ml and 2.0 mg/ml and the vehicle control were administered as described above.

[3] = system: normal cell lines PrEC, HMEC, WI38 and cancer cell lines DU145, MDA-MB-435, HT-29; assay: Cancer cell selectivity, IC90 in normal versus cancer cell lines (XTT); type: cell-based, human; details: average IC90 of all normal / average IC90 of all cancer cell lines, 6 to 7 days
Text: An exemplary method of assessing the differential sensitivity between normal and cancer cells for a compound has been described by Vassilev et al. (Anti-Cancer Drug Design (2001) 16:7). This method involves the comparison of IC90 values, i.e. the molar concentration of a test compound required to cause 90% growth inhibition of exponentially growing cells. Thus, the IC90 values for candidate compounds can be evaluated in various cancer cell lines (such as those outlined above) and normal cells (such as HUVEC and/or WI38 cells) and compared. IC90 values can be measured using a variety of standard techniques as known in the art. Cancer cell selectivity is calculated as a ratio between the average IC90 for all normal cell lines and the average IC90 for all cancer cell lines. Compounds with an IC90 ratio (normal/cancer) of >4 are considered to be selective for cancer cells (L. T. Vassilev et al., Anti-cancer Drug Design, 2001, 16: 7-17).
The normal cells lines used were PrEC (prostate), HMEC (breast), and WI38 (lung fibroblast) cell lines and the cancer cells lines were DU145 (prostate), MDA-MB-435 (breast), HT-29 (colon). IC90 values were also determined for the controls doxorubicin and etoposide. The cells were cultured as generally described in Example 13. Various concentrations of the compounds were incubated with the cells for 6 to 7 days, and the number of proliferating cells was measured using the XTT assay. Cancer cell selectivity was calculated as a ratio between the average IC90 for all normal and the average IC90 for all cancer cell lines.

Structure (SMILES): c1ccc(-c2[nH]c3ccccc3c2-c2nc3c4cccnc4c4ncccc4c3[nH]2)cc1 [Compound 9]
- IC50 ([1]; 6-7 days, Table 3): 0.3 µM
- IC50 ([1]; as Example 13, Table 7): 0.3 mg/L
- cleavage of plasmid DNA (supercoiled plasmid DNA): capable of cleaving DNA
- Sub-acute toxicity ([2]; 50 mg/Kg): −
- Sub-acute toxicity ([2]; 100 mg/Kg): +
- Normal/cancer IC90 ratio [3]: >5.6
